According to a compilation of properties of binary mixtures (doi:10.1021/jp911536z):

Experiment: xn = mol fraction of the nth substance listed
Conditions: 298.15 K, 100 kPa

CCn1cc[n+](C)c1.C[C@H](O)C(=O)[O-] + O
Conditions	electrical conductivity [S/m]	speed of sound [m/s]	viscosity [mPa·s]
x1 = 0.0056	0.329	–	–
x1 = 0.0097	–	1567.3	1.17
x1 = 0.0197	–	1631	1.44
x2 = 0.0056	–	1731.4	–
x2 = 0.0097	1.76	–	–
x2 = 0.0197	2.71	–	–
x2 = 0.0304	3.15	–	–
x2 = 0.0374	3.28	–	–
x2 = 0.0464	–	1735.1	110
x2 = 0.0739	3.02	–	–
x2 = 0.094	2.75	–	–
x2 = 0.0982	–	1738.6	60.5
x2 = 0.2881	1.07	–	–
x2 = 0.4781	0.597	–	–
x2 = 0.5219	–	1797.9	18.5
x2 = 0.6862	0.481	–	–
x2 = 0.7119	–	1826.6	11.3
x2 = 0.9018	0.259	–	–
x2 = 0.906	–	1842.9	5.65
x2 = 0.9261	–	1819.8	4.36
x2 = 0.9536	0.289	–	–
x2 = 0.9547	–	1748.4	2.68
x2 = 0.9626	–	1719.9	2.23
